Data on 30 compounds can be found in US20260297042A1, “BIARYLAMIDE DERIVATIVES AND THEIR USE AS PKMYT1 INHIBITORS” (CANCER RESEARCH TECHNOLOGY LIMITED, priority 2023, published 2026).

The IC50 is the midpoint of a concentration-inhibition curve. Low readings indicate higher potency, high ones lower potency.

The target of this assay is T1, Human PKMYT1 (Homo sapiens, UniProt Q99640).
T1 construct: Human PKMYT1 75-362 was cloned as a TEV cleavable 6xHis fusion; 6xHis (TEV cleavable) (cleaved yes); made in house; host or cells: bacterial cells
T1 sequence (Q99640 75-362): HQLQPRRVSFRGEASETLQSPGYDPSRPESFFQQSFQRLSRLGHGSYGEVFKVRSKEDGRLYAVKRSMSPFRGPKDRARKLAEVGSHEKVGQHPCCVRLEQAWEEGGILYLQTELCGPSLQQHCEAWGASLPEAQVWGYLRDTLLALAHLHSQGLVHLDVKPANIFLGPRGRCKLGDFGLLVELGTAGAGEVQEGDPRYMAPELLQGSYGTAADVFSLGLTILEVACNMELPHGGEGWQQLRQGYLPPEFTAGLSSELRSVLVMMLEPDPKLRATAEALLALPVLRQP
Put plainly: PKMYT1 biochemical ADP-Glo enzymatic assay. The protocol: Human PKMYT1 75-362 was cloned as a TEV cleavable 6xHis fusion in bacterial cells. After purification on a Ni++HiTrap Chelating HP column, the His-tag was cleaved using TEV protease. Cleaved PKMYT1 was further purified on a Superdex 200 16/600 sizing column. The fractions containing PKMYT1 were pooled and concentrated using an ultrafiltration centrifugal protein concentrator. The purified protein was aliquoted, flash frozen in liquid nitrogen, and stored at −80° C.
PKMYT1 biochemical assay: Inhibition of PKMYT1 was assessed using the ADP-Glo™ Max Detection System from Promega. This assay detects the production of ADP from ATP by PKMYT1 via a two-step process ultimately involving the conversion of ADP to ATP with the latter converted to light in a coupled reaction with luciferase/luciferin. Inhibition of PKMYT1 by small molecule inhibitors results in a retardation of luminescence above background. The intrinsic ATPase activity of PKMYT1 was assessed according to the following protocol. Compounds were dosed into Corning white low volume 384 well assay plates using an Echo acoustic dispenser to generate 10-point curves spanning a 3-fold dilution series. DMSO (no inhibitor) control wells were prepared to benchmark the maximum and minimum signals in the presence and absence of PKMYT1, respectively. The PKMYT1 kinase domain was purified in-house, as described above, and added to the wells at a final concentration of 15 nM in a buffer of 50 mM HEPES (pH 7.5), 10 mM MgCl2, 1 mM EGTA, 0.01% Brij-35, 1% DMSO. 500 µM ATP was added to start the reaction with the final assay volume being 4 μl. The plate was then incubated for 60 minutes at 26° C. before the addition of 4 μl of ADP-Glo Reagent to stop the reaction and deplete the unconsumed ATP. Following a further 60 minute incubation the assay signal was developed by the addition of 8 μl ADP-Glo Max Detection Reagent. After 60 minutes the luminescence signal was read on a PHERAStar FS microplate reader (BMG Labtech).
Data analysis: Data was captured and analysed within the Dotmatics Studies software module where dose response curves were generated and IC50 values determined. Acceptance and verification of data followed strict in-house business rules which are summarised as follows. […] Technical and biological replicates of each compound are routinely tested and replicate IC50 values must fall within 3-fold of each other with dose response curves showing ‘goodness of fit’ r2 values >0.9. Failure to meet any of these defined criteria result in rejection of data.

[1] abbreviates: ADP-Glo, 15 nM PKMYT1 kinase domain, 500 µM ATP, 60 minutes at 26° C., banded.
Setting [2] is: PKMYT1 kinase domain 15 nM, ADP-Glo, banded values.
Setting [3] is: PKMYT1 biochemical ADP-Glo enzymatic assay, Comparison Data 1.
The mark [4] stands for this setting: PKMYT1 biochemical ADP-Glo enzymatic assay, Comparison Data 2.

With `Cc1ccc(O)c(C)c1NC(=O)c1cnc(Nc2ccn(CCNC(=O)OC(C)(C)C)n2)s1` [BAA-020, tert-butyl N-[2-[3-[5-[(3-hydroxy-2,6-dimethyl-phenyl)carbamoyl]thiazol-2-yl]amino]pyrazol-1-ylethyl]carbamate], under setting [1], the IC50 was in the range of 1 to 11 µM.
`Cc1ccc(O)c(C)c1NC(=O)c1cnc(Nc2cn[nH]c2)s1` [BAA-026, N-(3-hydroxy-2,6-dimethyl-phenyl)-2-(1H-pyrazol-4-ylamino)thiazole-5-carboxamide] registered an IC50 under setting [1] of 1 to 11 µM.
Same read-out and setting: the same measure for `Cc1ccc(O)c(C)c1NC(=O)c1cnc(Nc2ccn([C@H]3CCCN(C(=O)OC(C)(C)C)C3)n2)s1` [BAA-039]: 1 to 11 µM; for `Cc1ccc(O)c(C)c1NC(=O)c1cnc(Nc2ccn([C@H]3CCOC3)n2)s1` [BAA-041]: 0.05 to 1 µM; for `CCOC(=O)c1coc(Nc2ncc(C(=O)Nc3c(C)ccc(O)c3C)s2)n1` [BAA-045]: 0.05 to 1 µM.
On the same count and under the same terms, as for `Cc1ccc(O)c(C)c1NC(=O)c1cnc(N[C@H]2CCN(C(=O)OC(C)(C)C)C2)s1` [BAA-049, tert-butyl (3S)-3-[5-[(3-hydroxy-2,6-dimethyl-phenyl)carbamoyl]thiazol-2-ylamino]pyrrolidine-1-carboxylate], the figure is 1 to 11 µM; as for `Cc1ccc(O)c(C)c1NC(=O)c1cnc(N[C@@H]2CCN(C(=O)OC(C)(C)C)C2)s1` [BAA-050], 1 to 11 µM.
Same read-out and setting: the same measure for `Cc1ccc(O)c(C)c1NC(=O)c1cnc(Nc2cc(CN3CCN(CCO)CC3)n(C)n2)s1` [BAA-052, N-(3-Hydroxy-2.6-dimethyl-phenyl)-2-[[5-[[4-(2-hydroxyethyl)piperazin-4-ium-1-yl]methyl]-1-methyl-pyrazol-3-yl]amino]thiazole-5-carboxamide]: 1 to 11 µM; for `Cc1ccc(O)c(C)c1NC(=O)c1cnc(NC2CCCCC2)s1` [BAA-064, 2-(cyclohexylamino)-N-(3-hydroxy-2,6-dimethyl-phenyl)thiazole-5-carboxamide]: 1 to 11 µM; for `Cc1ccc(O)c(C)c1NC(=O)c1cnc(NCCCO)s1` [BAA-069, N-(3-hydroxy-2,6-dimethyl-phenyl)-2-(3-hydroxypropylamino)thiazole-5-carboxamide]: 1 to 11 µM.
`Cc1ccc(O)c(C)c1NC(=O)c1cnc(NCC(N)=O)s1` [BAA-070, 2-[(2-amino-2-oxo-ethyl)amino]-N-(3-hydroxy-2,6-dimethyl-phenyl)thiazole-5-carboxamide] yielded an IC50 under setting [1] of 1 to 11 µM.
`Cc1ccc(O)c(C)c1NC(=O)c1cnc(NCCC(C)(C)C)s1` [BAA-074, 2-(3,3-dimethylbutylamino)-N-(3-hydroxy-2,6-dimethyl-phenyl)thiazole-5-carboxamide] returned a half-maximal inhibitory concentration (IC50) under setting [1] of 1 to 11 µM.
Same read-out and setting: as for `Cc1ccc(O)c(C)c1NC(=O)c1cnc(NCCc2ccc(C(F)(F)F)cc2)s1` [BAA-075, N-(3-hydroxy-2,6-dimethyl-phenyl)-2-[2-[4-(trifluoromethyl)phenyl]ethylamino]thiazole-5-carboxamide], the figure is 1 to 11 µM.
On the same count and under the same terms, as for `Cc1ccc(O)c(C)c1NC(=O)c1cnc(Nc2ccn(CC(=O)NC[C@H](C)O)n2)s1` [BAA-174], the figure is 0.05 to 1 µM.
Same read-out and setting: as for `Cc1ccc(O)c(C)c1NC(=O)c1cnc(NCC2CCN(C(=O)CN3CCCC3)CC2)s1` [BAA-211, N-(3-Hydroxy-2.6-dimethyl-phenyl)-2-[[1-(2-pyrrolidin-1-ylacetyl)-4-piperidyl]methylamino]thiazole-5-carboxamide], the figure is 1 to 11 µM; as for `Cc1ccc(O)c(C)c1NC(=O)c1cnc(NCC2CCN(CC(=O)N(C)C)CC2)s1` [BAA-216, 2-[[1-[2-(dimethylamino)-2-oxo-ethyl]-4-piperidyl]methylamino]-N-(3-hydroxy-2,6-dimethyl-phenyl)thiazole-5-carboxamide], 1 to 11 µM; as for `Cc1ccc(O)c(C)c1NC(=O)c1cnc(NCC2CCN(C(=O)CN3CCOCC3)CC2)s1` [BAA-217, N-(3-hydroxy-2,6-dimethyl-phenyl)-2-[[1-(2-morpholinoacetyl)-4-piperidyl]methylamino]thiazole-5-carboxamide], 0.05 to 1 µM.
Turning to `Cc1ccc(O)c(C)c1NC(=O)c1cnc(Nc2ccc(-c3ccc(F)cc3)cn2)s1` [BAA-291, 2-((5-(4-fluorophenyl)pyridin-2-yl)amino)-N-(3-hydroxy-2,6-dimethylphenyl)thiazole-5-carboxamide], the IC50 under setting [1] was in the range of 1 to 11 µM.
In turn, `Cc1cc(-c2ccc(F)cc2)cnc1Nc1ncc(C(=O)Nc2c(C)ccc(O)c2C)s1` [BAA-292, 2-((5-(4-fluorophenyl)-3-methylpyridin-2-yl)amino)-N-(3-hydroxy-2,6-dimethylphenyl)thiazole-5-carboxamide] registered an IC50 under setting [1] of 1 to 11 µM.
Same read-out and setting: the same measure for `CCN(c1ccc(F)cc1)c1ccc(Nc2ncc(C(=O)Nc3c(C)ccc(O)c3C)s2)nc1` [BAA-311, 2-((5-(ethyl(4-fluorophenyl)amino)pyridin-2-yl)amino)-N-(3-hydroxy-2,6-dimethylphenyl)thiazole-5-carboxamide]: 1 to 11 µM; for `CCN(c1ccc(F)cc1)c1cccc(Nc2ncc(C(=O)Nc3c(C)ccc(O)c3C)s2)n1` [BAA-312, 2-((6-(ethyl(4-fluorophenyl)amino)pyridin-2-yl)amino)-N-(3-hydroxy-2,6-dimethylphenyl)thiazole-5-carboxamide]: 1 to 11 µM.
Compound `Cc1ccc(N2CCN(C3CC3)CC2)nc1Nc1ncc(C(=O)Nc2c(C)ccc(O)c2C)s1` [BAA-433, 2-((6-(4-cyclopropylpiperazin-1-yl)-3-methylpyridin-2-yl)amino)-N-(3-hydroxy-2,6-dimethylphenyl)thiazole-5-carboxamide] showed an IC50 under setting [2] of less than 0.05 µM.
On the same count and under the same terms, as for `Cc1cc(C)c(NC(=O)c2cnc(Nc3ccn(C)n3)s2)c(C)c1O` [BAA-517, N-(3-Hydroxy-2,4,6-trimethylphenyl)-2-((1-methyl-1H-pyrazol-3-yl)amino)thiazole-5-carboxamide], the figure is 1 to 11 µM; as for `Cc1ccc(O)c(C)c1NC(=O)c1cnc(Nc2ccccc2C(C)C)s1` [BAA-525, N-(3-hydroxy-2,6-dimethylphenyl)-2-((2-isopropylphenyl)amino)thiazole-5-carboxamide], 1 to 11 µM; as for `Cc1cc(Cl)c(O)c(C)c1NC(=O)c1cnc(Nc2ccn(C)n2)s1` [BAA-547, N-(4-chloro-3-hydroxy-2,6-dimethylphenyl)-2-((1-methyl-1H-pyrazol-3-yl)amino)thiazole-5-carboxamide], 1 to 11 µM.
The same measure, in the same setting: the same measure for `CCN(CC)C(=O)Cn1nc(C(F)(F)F)cc1Nc1ncc(C(=O)Nc2c(C)ccc(O)c2C)s1` [BAA-561, 2-((1-(2-(diethylamino)-2-oxoethyl)-3-(trifluoromethyl)-1H-pyrazol-5-yl)amino)-N-(3-hydroxy-2,6-dimethylphenyl)thiazole-5-carboxamide]: 1 to 11 µM.
For the compound `Cc1ccc(O)cc1NC(=O)c1cnc(N)s1` [REF-001, 2-Amino-N-(5-hydroxy-2-methyl-phenyl)thiazole-5-carboxamide, reference compound], the IC50 under setting [3] is 53.2 µM.
On to `Cc1c(O)cccc1NC(=O)c1cnc(N)s1` [REF-002, 2-Amino-N-(3-hydroxy-2-methyl-phenyl)thiazole-5-carboxamide, reference compound], for which, under setting [3], 26.8 µM corresponded to half-maximal inhibition (IC50).
Consider `Cc1cccc(C)c1NC(=O)c1cnc(Nc2ccn(C)n2)s1` [REF-003, N-(2,6-Dimethylphenyl)-2-[(1-methylpyrazol-3-yl)amino]thiazole-5-carboxamide, reference compound], for which, under setting [4], the midpoint of inhibition, the IC50, lay at 54.3 µM.
For the compound `COc1ccc(C)c(NC(=O)c2cnc(Nc3ccn(C)n3)s2)c1C` [REF-004, N-(3-Methoxy-2,6-dimethyl-phenyl)-2-[(1-methylpyrazol-3-yl)amino]thiazole-5-carboxamide, reference compound], the IC50 under setting [4] is more than 100 µM.
